In patent publication US20250034135A1, “ANTI-APOPTOTIC PROTEIN BCL-2 INHIBITOR, PHARMACEUTICAL COMPOSITION AND USES THEREOF” (HANGZHOU HEALZEN THERAPEUTICS CO., LTD., priority 2021, published 2025):

target: BCL2 (Homo sapiens (Human), UniProt P10415); experiment: Molecular level activity test of anti-apoptotic protein BCL2 (HTRF, binding to Bim peptide); details: HTRF, binding of BCL2 to Bim peptide; read-out: BCL2 nM (inhibitory activity, IC50)
How it was run: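 Disruption of the BCL2/Bim peptide interaction is detected by homogeneous time-resolved fluorescence, using anti-His and streptavidin-XL665 reagents against His-tagged protein and biotin-tagged peptide. Compound exposure lasts 1 h before reagent addition; plates then sit 4 h at room temperature.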

BCL2, sequence (P10415 whole entry): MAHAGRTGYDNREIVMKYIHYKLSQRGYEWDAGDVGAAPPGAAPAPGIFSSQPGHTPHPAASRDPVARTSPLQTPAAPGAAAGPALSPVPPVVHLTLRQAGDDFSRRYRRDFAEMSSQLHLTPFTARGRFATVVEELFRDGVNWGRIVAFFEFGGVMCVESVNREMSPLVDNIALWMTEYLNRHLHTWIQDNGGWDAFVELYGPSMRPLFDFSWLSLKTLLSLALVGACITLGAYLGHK

IC50, < 10 nM:
COc1ccc(CN2CCN(C3CC4(CCN(c5cc(Oc6cnc7[nH]ccc7c6)c(C(=O)NS(=O)(=O)c6cc([N+](=O)[O-])c(NC[C@H]7CC[C@](C)(O)CC7)c7scnc67)cc5F)CC4)C3)[C@H](c3ccccc3C(C)C)C2)cc1 [compound 116, 2-((1H-pyrrolo[2,3-b]pyrid-5-yl)oxy)-5-fluoro-N-((7-((((1r, 4r)-4-hydroxy-4-methylcyclohexyl)methyl)amino)-6-nitrobenzo[d]thiazol-4-yl)sulfonyl)-4-(2-((R)-2-(2-isopropylphenyl)-4-(4-methoxybenzyl)piperazin-1-yl)-7-azaspiro[3.5]non-7-yl)benzamide]
CC(C)c1ccccc1[C@@H]1CN(Cc2ccc(NS(C)(=O)=O)cc2)CCN1C1CC2(CCN(c3cc(Oc4cnc5[nH]ccc5c4)c(C(=O)NS(=O)(=O)c4ccc(NCC5(F)CCOCC5)c([N+](=O)[O-])c4)cc3F)CC2)C1 [compound 201, (R)-2-((1H-pyrrolo[2,3-b]pyrid-5-yl)oxy)-5-fluoro-N-((4-(((4-fluorotetrahydro-2H-pyran-4-yl)methyl)amino)-3-nitrophenyl)sulfonyl)-4-(2-(2-(2-isopropylphenyl)-4-(4-(methylsulfonylamino)benzyl)piperazin-1-yl)-7-azaspiro[3.5]non-7-yl)benzamide]
COc1cc(CN2CCN(C3CC4(CCN(c5ccc(C(=O)NS(=O)(=O)c6cc([N+](=O)[O-])c(NC[C@H]7CC[C@](C)(O)CC7)c7c6OCO7)c(Oc6cnc7[nH]ccc7c6)c5)CC4)C3)[C@H](c3ccccc3C(C)C)C2)cc2cc(C)oc12 [compound 180]
COc1ccc(CN2CCN(C3CC4(CCN(c5cc(Oc6cnc7[nH]ccc7c6)c(C(=O)NS(=O)(=O)c6cc([N+](=O)[O-])c(NC[C@H]7CC[C@](C)(O)CC7)c7occc67)cn5)CC4)C3)[C@H](c3ccccc3C(C)C)C2)cc1 [compound 139, 4-((1H-pyrrolo[2,3-b]pyrid-5-yl)oxy)-N-((7-((((1r, 4r)-4-hydroxy-4-methylcyclohexyl)methyl)amino)-6-nitrobenzofuran-4-yl)sulfonyl)-6-(2-((R)-2-(2-isopropylphenyl)-4-(4-methoxybenzyl)piperazin-1-yl)-7-azaspiro[3.5]non-7-yl) nicotinamide]
COc1ccc(CN2CCN(C3CC4(CCN(c5cc(Oc6cnc7[nH]ccc7c6)c(C(=O)NS(=O)(=O)c6ccc(NC[C@H]7CC[C@](C)(O)CC7)c([N+](=O)[O-])c6)cc5F)CC4)C3)[C@H](c3ccccc3C(C)C)C2)c2c1OCCO2 [compound 228, 2-((1H-pyrrolo[2,3-b]pyrid-5-yl)oxy)-5-fluoro-N-((4-((((1r, 4r)-4-hydroxy-4-methylcyclohexyl)methyl)amino)-3-nitrophenyl)sulfonyl)-4-(2-((R)-2-(2-isopropylphenyl)-4-((8-methoxy-2,3-dihydrobenzo[b][1,4]dioxan-5-yl)methyl)piperazin-1-yl)-7-azaspiro[3.5]non-7-yl)benzamide]
CC(C)c1ccccc1[C@@H]1CCCN1C1CC2(CCN(c3cc(Oc4cnc5[nH]ccc5c4)c(C(=O)NS(=O)(=O)c4cc([N+](=O)[O-])c(NC[C@H]5CC[C@](C)(O)CC5)c5occc45)cc3F)CC2)C1 [compound 095, 2-((1H-pyrrolo[2,3-b]pyrid-5-yl)oxy)-5-fluoro-N-((7-((((1r, 4r)-4-hydroxy-4-methylcyclohexyl)methyl)amino)-6-nitrobenzofuran-4-yl)sulfonyl)-4-(2-((S)-2-(2-isopropylphenyl)pyrrolidin-1-yl)-7-azaspiro[3.5]non-7-yl)benzamide]
CC(C)c1ccccc1[C@@H]1CCCN1C1CC2(CCN(c3cc(Oc4cnc5[nH]ccc5c4)c(C(=O)NS(=O)(=O)c4cc([N+](=O)[O-])c(NCC5CCC(O)CC5)c5[nH]cnc45)cc3F)CC2)C1 (some centres unmarked) [compound 016]
COc1ccc(CN2CCN(C3CC4(CCN(c5cc(Oc6cnc7[nH]ccc7c6)c(C(=O)NS(=O)(=O)c6cc([N+](=O)[O-])c(NCC7(F)CCOCC7)c7scnc67)cc5F)CC4)C3)[C@H](c3ccccc3C(C)C)C2)cn1 [compound 128, (R)-2-((1H-pyrrolo[2,3-b]pyrid-5-yl)oxy)-5-fluoro-N-((7-(((4-fluorotetrahydro-2H-pyran-4-yl)methyl)amino)-6-nitrobenzo[d]thiazol-4-yl)sulfonyl)-4-(2-(2-(2-isopropylphenyl)-4-((6-methoxypyrid-3-yl)methyl)piperazin-1-yl)-7-azaspiro[3.5]non-7-yl)benzamide]
COc1ccc(CN2CCN(C3CC4(CCN(c5ccc(C(=O)NS(=O)(=O)c6cc([N+](=O)[O-])c(NC[C@H]7CC[C@](C)(O)CC7)c7[nH]cnc67)c(Oc6cnc7[nH]cc(F)c7c6)c5)CC4)C3)C(c3ccccc3C(C)C)C2)cn1 (some centres unmarked) [compound 049, 2-((3-fluoro-1H-pyrrolo[2,3-b]pyrid-5-yl)oxy)-N-((7-((((1r,4r)-4-hydroxy-4-methylcyclohexyl)methyl)amino)-6-nitro-1H-benzo[d]imidazol-4-yl)sulfonyl)-4-(2-(2-(2-isopropylphenyl)-4-((6-methoxypyrid-3-yl)methyl)piperazin-1-yl)-7-azaspiro[3.5]non-7-yl)benzamide]
COc1ccc(CN2CCN(C3CC4(CCN(c5ccc(C(=O)NS(=O)(=O)c6cc([N+](=O)[O-])c(NCC7(F)CCN(C(C)C)CC7)c7[nH]cnc67)c(Oc6cnc7[nH]cc(F)c7c6)c5)CC4)C3)C(c3ccccc3C(C)C)C2)cc1 (centres unmarked) [compound 050]
COc1ccc(CN2CCN(C3CC4(C3)CN(c3cc(Oc5cnc6[nH]ccc6c5)c(C(=O)NS(=O)(=O)c5cc([N+](=O)[O-])c(NCC6(F)CCN(C(C)C)CC6)c6[nH]cnc56)cc3F)C4)C(c3ccccc3C(C)C)C2)cc1 (centres unmarked) [compound 074, 2-((1H-pyrrolo[2,3-b]pyrid-5-yl)oxy)-5-fluoro-N-((7-(((4-fluoro-1-isopropylpiperid-4-yl)methyl)amino)-6-nitro-1H-benzo[d]imidazol-4-yl)sulfonyl)-4-(6-(2-(2-isopropylphenyl)-4-(4-methoxybenzyl)piperazin-1-yl)-2-azaspiro[3.3]hept-2-yl)benzamide]
CC(C)c1ccccc1[C@@H]1CCCN1C1CC2(CCN(c3cc(Oc4cnc5[nH]ccc5c4)c(C(=O)NS(=O)(=O)c4cc([N+](=O)[O-])c(NCC5(F)CCN(C(=O)CN(C)C)CC5)c5[nH]cnc45)cc3F)CC2)C1 [compound 030, (S)-2-((1H-pyrrolo[2,3-b]pyrid-5-yl)oxy)-N-((7-(((1-(dimethylglycyl)-4-fluoropiperid-4-yl)methyl)amino)-6-nitro-1H-benzo[d]imidazol-4-yl)sulfonyl)-5-fluoro-4-(2-(2-(2-isopropylphenyl)pyrrolidin-1-yl)-7-azaspiro[3.5]non-7-yl)benzamide]
CC(C)c1ccccc1C1CN(C(C)C)CCN1C1CC2(C1)CN(c1ccc(C(=O)NS(=O)(=O)c3cc([N+](=O)[O-])c(NCC4(F)CCN(C(C)C)CC4)c4[nH]cnc34)c(Oc3cnc4[nH]ccc4c3)c1)C2 (centres unmarked) [compound 042, 2-((1H-pyrrolo[2,3-b]pyrid-5-yl)oxy)-N-((7-(((4-fluoro-1-isopropylpiperid-4-yl)methyl)amino)-6-nitro-1H-benzo[d]imidazol-4-yl)sulfonyl)-4-(6-(4-isopropyl-2-(2-isopropylphenyl)piperazin-1-yl)-2-azaspiro[3.3]hept-2-yl)benzamide]
COc1cc(CN2CCN(C3CC4(CCN(c5cc(Oc6cnc7[nH]ccc7c6)c(C(=O)NS(=O)(=O)c6ccc(NC[C@H]7CC[C@](C)(O)CC7)c([N+](=O)[O-])c6)cc5F)CC4)C3)[C@H](c3ccccc3C(C)C)C2)cc2cc(C)oc12 [compound 225, 2-((1H-pyrrolo[2,3-b]pyrid-5-yl)oxy)-5-fluoro-N-((4-((((1r, 4r)-4-hydroxy-4-methylcyclohexyl)methyl)amino)-3-nitrophenyl)sulfonyl)-4-(2-((R)-2-(2-isopropylphenyl)-4-((7-methoxy-2-methylbenzofuran-5-yl)methyl)piperazin-1-yl)-7-azaspiro[3.5]non-7-yl)benzamide]
COc1ccc(CN2CCN(C3CC4(CCN(c5cc(Oc6cnc7[nH]ccc7c6)c(C(=O)NS(=O)(=O)c6cc([N+](=O)[O-])c(NCC7(F)CCOCC7)c7ocnc67)cc5F)CC4)C3)[C@H](c3ccccc3C(C)C)C2)c(F)n1 [compound 131, (R)-2-((1H-pyrrolo[2,3-b]pyrid-5-yl)oxy)-5-fluoro-4-(2-(4-((2-fluoro-6-methoxypyrid-3-yl)methyl)-2-(2-isopropylphenyl)piperazin-1-yl)-7-azaspiro[3.5]non-7-yl)-N-((7-(((4-fluorotetrahydro-2H-pyran-4-yl)methyl)amino)-6-nitrobenzo[d]yl)sulfonyl)benzamide]
COc1ccc(CN2CCN(C3CC4(CCN(c5cc(Oc6cnc7[nH]cc(F)c7c6)c(C(=O)NS(=O)(=O)c6ccc(NCC7(F)CCN(C(C)C)CC7)c([N+](=O)[O-])c6)cn5)CC4)C3)C(c3ccccc3C(C)C)C2)cc1 (centres unmarked) [compound 061, N-((4-(((4-fluoro-1-isopropylpiperid-4-yl)methyl)amino)-3-nitrophenyl)sulfonyl)-4-((3-fluoro-1H-pyrrolo[2,3-b]pyrid-5-yl)oxy)-6-(2-(2-(2-isopropylphenyl)-4-(4-methoxybenzyl)piperazin-1-yl)-7-azaspiro[3.5]non-7-yl) nicotinamide]
CC(C)c1ccccc1[C@@H]1CN(Cc2ccc(F)cc2)CCN1C1CC2(CCN(c3cc(Oc4cnc5[nH]ccc5c4)c(C(=O)NS(=O)(=O)c4ccc(NC[C@H]5CC[C@](C)(O)CC5)c([N+](=O)[O-])c4)cc3F)CC2)C1 [compound 215, 2-((1H-pyrrolo[2,3-b]pyrid-5-yl)oxy)-5-fluoro-4-(2-((R)-4-(4-fluorobenzyl)-2-(2-isopropylphenyl)piperazin-1-yl)-7-azaspiro[3.5]non-7-yl)-N-((4-((((1r, 4r)-4-hydroxy-4-methylcyclohexyl)methyl)amino)-3-nitrophenyl)sulfonyl)benzamide]
